Assay results from patent publication US11141413B2, “Method of treating renal cell carcinoma using N-(4-(6,7-dimethoxyquinolin-4-yloxy)phenyl)-N′-(4-fluorophenyl)cyclopropane-1,1-dicarboxamide, (2S)-hydroxybutanedioate” (Exelixis, Inc., priority 2016, dated 2021).

Test system: bone metastases in advanced RCC patients
Assay: METEOR bone endpoints: bone scan response, skeletal-related events, bone markers
Format: in vivo, human
Conditions: for C-terminal cross-lined telopeptides of type 1 collagen (CTx), median / N-terminal propeptide of type 1 collagen (P1NP), median: patients with bone metastases at baseline; for Bone scan response (BSR) per IRC: patients with bone lesions at baseline by bone scan, BSR = ≥30% decrease in BSLA
Excerpt: The study design in depicted in FIG. 8.3. Clinical outcome measures included PFS, ORR, overall survival (OS), and safety. Exploratory endpoints included bone scan response (BSR) in patients with bone scan lesions at baseline (Brown Nucl Med Commun 2012 33:384), incidence of skeletal-related events (SRE), and changes in bone turnover markers. The subgroup of patients with bone metastases (N=142) was defined by the presence of bone metastases at baseline by CT or MRI per IRC. Bone scan response (BSR) was evaluated for patients who had bone lesions detected by technetium bone scans at baseline (N=178).
Participants were screened via CT or MRI every 8 weeks for the first 12-months post-randomization, and then every 12 weeks thereafter. Technetium bone scans were performed at screening (all patients), every 16 weeks for the first 12 months post-randomization (only in patients with bone lesions at baseline), and then every 23 weeks thereafter. Skeletal-related events (SREs) were assessed and consisted of pathological fractures, spinal cord compression, surgery to bone, and external radiation therapy to bone. Serum bone marker analyses consisted on N-terminal propeptide of type I collagen (PINP), and the bone resorption marker c-terminal cross-lined telopeptides of type I collagen (CTx), which were collected prior to the first dose at week 1, at week 5, and at week 9.
Bone scan responses per IRC in patients with bone scan lesions were performed using computer-assisted detection of bone scan lesions. An IRC was used to quantitate bone scan tumor burden using computer-assisted detection (CAD) to measure lesions and defined criteria for response. Bone scan lesion area (BSLA), which represents the number of pixels with radiotracer uptake above the threshold for normal bone, was also calculated. BSR was defined as greater than or equal to 30% decrease in BSLA.

[1] = patients with an SRE pre-randomization
[2] = prior history of SREs, Pts with Bone Metastases
[3] = prior history of SREs, Pts without Bone Metastases

Compound	C-terminal cross-lined telopeptides of type 1 collagen (CTx), median (Baseline) [µg/L]	N-terminal propeptide of type 1 collagen (P1NP), median (Baseline) [µg/L]	Post-Randomization SREs, % (Pts with Bone Metastases)	Post-randomization SRE: External radiation therapy to bone, % (Pts with Bone Metastases)	Post-randomization SRE: Pathologic fractures, % (Pts with Bone Metastases)	Post-randomization SRE: Spinal cord compression, % (Pts with Bone Metastases)	Post-randomization SRE: Surgery to bone, % (Pts with Bone Metastases)	Time to first SRE, median (Pts with Bone Metastases) [months]	Post-Randomization SREs, % (Pts without Bone Metastases)	Post-randomization SRE: External radiation therapy to bone, % (Pts without Bone Metastases)	Post-randomization SRE: Pathologic fractures, % (Pts without Bone Metastases)	Post-randomization SRE: Spinal cord compression, % (Pts without Bone Metastases)	Post-randomization SRE: Surgery to bone, % (Pts without Bone Metastases)	Time to first SRE, median (Pts without Bone Metastases) [months]	C-terminal cross-lined telopeptides of type 1 collagen (CTx), median (Week 5) [µg/L]	N-terminal propeptide of type 1 collagen (P1NP), median (Week 5) [µg/L]	Cases of spinal cord compression [1]	Incidence of post-randomization SREs [1] [%]	Bone scan response (BSR) per IRC [%]	Post-randomization SRE: External radiation therapy to bone, % [2]	further results
COc1cc2nccc(Oc3ccc(NC(=O)C4(C(=O)Nc5ccc(F)cc5)CC4)cc3)c2cc1OC [cabozantinib]	0.40	48.5	(21) %	(9) %	(12) %	(3) %	(8) %	3.45	(9) %	(7) %	(3) %	(1) %	(2) %	3.93	0.19	38.9	0	16	18	(9) %	Reductions in bone markers (cabozantinib vs everolimus): greater; Bone scan response (BSR) per IRC (listed as Cabozantinib): 18 (11, 27) %; Post-randomization SRE: Pathologic fractures, % [2]: (14) %; Post-randomization SRE: Surgery to bone, % [2]: (9) %; SREs in patients with a prior history of SREs, % [2]: (23) %; Time to first SRE, median [2]: 3.25 months; Post-randomization SRE: External radiation therapy to bone, % [3]: (8) %; Post-randomization SRE: Pathologic fractures, % [3]: (6) %; Post-randomization SRE: Surgery to bone, % [3]: (4) %; SREs in patients with a prior history of SREs, % [3]: (10) %; Time to first SRE, median [3]: 2.76 months; Cases of spinal cord compression (randomized patients): 4; Patients with at least one skeletal-related event (SRE) (randomized patients): 12%
CO[C@H]1C[C@@H]2CC[C@@H](C)[C@@](O)(O2)C(=O)C(=O)N2CCCC[C@H]2C(=O)O[C@H]([C@H](C)C[C@@H]2CC[C@@H](OCCO)[C@H](OC)C2)CC(=O)[C@H](C)/C=C(\C)[C@@H](O)[C@@H](OC)C(=O)[C@H](C)C[C@H](C)/C=C/C=C/C=C/1C [everolimus]	0.43	49.9	(29) %	(25) %	(5) %	(6) %	(8) %	2.53	(10) %	(7) %	(3) %	(2) %	(2) %	4.27	0.43	44.1	5	34	10	(28) %	Bone scan response (BSR) per IRC (listed as Everolimus): 10 (4, 19) %; Post-randomization SRE: Pathologic fractures, % [2]: (5) %; Post-randomization SRE: Spinal cord compression, % [2]: (5) %; Post-randomization SRE: Surgery to bone, % [2]: (7) %; SREs in patients with a prior history of SREs, % [2]: (33) %; Time to first SRE, median [2]: 2.41 months; Post-randomization SRE: External radiation therapy to bone, % [3]: (23) %; Post-randomization SRE: Pathologic fractures, % [3]: (13) %; Post-randomization SRE: Spinal cord compression, % [3]: (6) %; Post-randomization SRE: Surgery to bone, % [3]: (9) %; SREs in patients with a prior history of SREs, % [3]: (36) %; Time to first SRE, median [3]: 4.27 months; Cases of spinal cord compression (randomized patients): 8; Patients with at least one skeletal-related event (SRE) (randomized patients): 14%
